Test results taken from paper PMC11542830, “3-nitropyridine analogues as novel microtubule-targeting agents” (PLOS ONE, 2024).
Where two headings read alike, the source gives them in different places.

Assays:
[1] = Pharmacokinetics and tissue distribution in mice; type: in vivo; details: CD1 mice, IV bolus 20 mg/kg
Method: Female CD1 mice were purchased from Harlan (Harlan Netherlands BV) and 7–8 weeks old mice were injected intravenously (IV) with 20 mg/kg 4AZA2891 formulated at 2 mg/ml as described above. […] The plasma, obtained after centrifugation of the heparinized blood for 2 min at 13,000 g, and the harvested tissues, after homogenization with Ultra-Turrax, were stored at-80°C until analysis by LC-MS/MS.
Every plasma and tissue sample was spiked with internal standard followed by the addition of 4 volumes of methanol. The samples were kept for 30 min on ice prior to centrifugation 10 min at 12,000 RPM in order to remove precipitated proteins. The supernatant was analyzed for the presence of 4AZA2891 using LC/MS/MS (Finnigan LCQ advantage Max (ion trap) mass spectrometer with Surveyor HPLC System (Thermo Finnigan)).
As standard for the bioanalysis, 4AZA2891 was diluted stepwise. Each dilution was added to blank control plasma or to blank control tissue homogenate additionally spiked with internal standard, giving rise to standard curves from 5 to 5,000 ng/ml. The lower limit of quantification was 5 to 10 ng/ml depending on the tissues.
Non-compartmental pharmacokinetic analysis was performed on the plasma concentration-time data. PK Solutions 2.0 software (Summit Research Services) was used to calculate the PK parameters.

tubulin = test: Fluorescence-based tubulin polymerization assay; type: biochemical; details: purified tubulin, fluorescent reporter, vs DMSO control
Method: Tubulin polymerization in vitro was analyzed using the fluorescence-based tubulin polymerization assay (Cytoskeleton, Inc.), according to the manufacturer’s guidelines. Fluorescence was read on a SaFire II microplate reader (Tecan).

T-47D = test: NCI60 5-dose screen, T-47D; type: cell-based; details: Homo sapiens, T47D; breast cancer; Fig 1D; read-out: Log10 GI50 (T-47D) (converted)
Method: The screening methodology used in the NCI60 Cell 5-Doses screen is described in detail at https://dtp.cancer.gov/discovery_development/nci-60/methodology.htm. Briefly, cells are seeded in 96 well plates at an appropriate density and incubated for 1 day. After 1 day, some of the plates are processed to determine a time zero density. To the remaining plates, compounds are added over a 5-log M concentration range (1 log dilutions from 10^-4M to 10^-8M). Plates are incubated for two additional days, then fixed and stained with sulforhodamine B. Growth inhibition is calculated relative to cells without drug treatment and the time zero control. The GI50 is the concentration of a compound that causes 50% growth inhibition, relative to the no drug control.

| SMILES | tissue distribution [1] | half-life ([1]; female, mouse, different tissues (homogenates), tissues, read-out: elimination half-lives in the different tissues) [min] | AUC(0-t) ([1]; female, mouse, plasma, read-out: AUClast in plasma) [ng·h/mL] | Kp ([1]; female, mouse, brain, read-out: ratio of brain AUC over plasma AUC) | Kp ([1]; female, mouse, kidney, read-out: ratio of kidney AUC over plasma AUC) | half-life ([1]; female, mouse, plasma, read-out: elimination half-life (converted)) [min] | clearance ([1]; female, mouse, plasma, read-out: systemic clearance (converted)) [mL/min/kg] | Vd ([1]; female, mouse, plasma, read-out: volume of distribution at steady state) [L/kg] | effect on tubulin polymerization in vitro (tubulin) | GI50 (T-47D) [µM] |
| --- | --- | --- | --- | --- | --- | --- | --- | --- | --- | --- |
| Cc1cc(C)cc(Nc2ccc([N+](=O)[O-])c(NCCN3CCOCC3)n2)c1 [Compound 4AZA2891, 6-(3,5-dimethylanilino)-2-(2-morpholinoethylamino)-3-nitropyridine] | distributes readily to all tissues analyzed including the brain | 18 to 48 | 1290 | 2.7 | 2.6 | 42 | 257 | 5.7 | dose-dependently inhibits tubulin polymerization | – |
| Cc1ccnc(Nc2ccc([N+](=O)[O-])c(NCCN3CCOCC3)n2)c1 [Compound 4AZA2996, N^6-(4-methylpyridin-2-yl)-N^2-(2-morpholinoethyl)-3-nitropyridine-2,6-diamine] | – | – | – | – | – | – | – | – | – | 26.3 |
